Data set [1] has as its system Staphylococcus aureus. As to the kind of experiment: One-minute kill in bacterial culture (colony counts). In kind it is cell-based. The note with it: for CFU/ml (1 minute kill): TSB + 20% BCS, 10^7 CFU inoculum; for decrease in CFU: 500 micrograms per milliliter, 1 minute. The procedure: Various concentrations of chlorhexidine diacetate (“CHA”) and/or triclosan (“TC”) were dispensed in 1.0 ml trypticase soy broth (“TSB”) containing 20 percent bovine calf serum (“BCS”) and inoculated with 10^7 colony-forming units (“CFU”) of Staphylococcus aureus. After one minute, the cultures were diluted with drug-inactivating medium (1:100 dilution in LTSB drug inactivating medium, which is 5% Tween 80, 2% lecithin, 0.6% sodium oleate, 0.5% sodium thiosulfate, 0.1% protease peptone and 0.1% tryptone) and 0.2 ml of the diluted culture was subcultured on a trypticase soy agar plate for the determination of colony counts.

A short description of data set [2]: Solubility observation. To be noted: water or alcohol. In kind it is physicochemical. An excerpt: When relatively soluble chlorhexidine salts such as chlorhexidine acetate (CHA) were used to impregnate catheters, the release was undesirably rapid. We investigated the use of CHX as a substitute for CHA.

Regarding `Oc1cc(Cl)ccc1Oc1ccc(Cl)cc1Cl` [TC, 2,4,4′-trichloro-2′-hydroxydiphenyl ether], the results for the “CFU/ml (1 minute kill)” value in data set [1] (250 μg/ml) and in data set [1] (500 μg/ml) were 2.0 × 10^5 CFU/ml and 4.2 × 10^3 CFU/ml, respectively. Moreover, the “decrease in CFU” value in data set [1] was “approximately 2400 fold”.
`N=C(NCCCCCCNC(=N)NC(=N)Nc1ccc(Cl)cc1)NC(=N)Nc1ccc(Cl)cc1` [CHX, chlorhexidine free base]: the solubility entry in data set [2] is “not soluble”.
Consider `CC(=O)O.CC(=O)O.NC(=N\CCCCCC/N=C(N)/N=C(\N)Nc1ccc(Cl)cc1)/N=C(\N)Nc1ccc(Cl)cc1` [CHA, chlorhexidine diacetate], for which the “CFU/ml (1 minute kill)” value in data set [1] (500 μg/ml) is recorded as 6.0 × 10^5 CFU/ml; in data set [1] (1000 μg/ml), 5.0 × 10^4 CFU/ml; in data set [1] (2000 μg/ml), 2.1 × 10^3 CFU/ml. Moreover, the “decrease in CFU” value in data set [1] is “approximately 17 fold”.

Values taken from patent US6872195B2, “Chlorhexidine-containing medical devices” (The Trustees of Columbia University in the City of New York, priority 1996, dated 2005).
